Data as given in the supplement of paper PMC10307832.

What was measured:
Assay in all cases: relative viability (nuclei count vs DMSO), 5 days (fraction); higher = more cells survive
[1] = compound: Cn1cc(-c2cnn3c(N)c(Br)c([C@@H]4CCCNC4)nc23)cn1 + O=C(CCCCCCC(=O)Nc1ccccc1)NO [Vorinostat] (partner 1 µM)
In short: (§1)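 Relative viability divides the nuclei count in treated wells by that in vehicle wells. Lung cancer cell lines were seeded in 1536-well plates, dosed by pin tool the next day, and fixed and stained after 5 days in one step with final 0.05% Triton X-100, 1% formaldehyde and 1 ug/ml Hoechst. Dosing was a single drug or a fixed anchor-drug dose plus five library-drug doses (not always all listed) in √10 steps, and values are medians of duplicate plates imaged at 4×.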

[2] = compound: Cn1cc(-c2cnn3c(N)c(Br)c([C@@H]4CCCNC4)nc23)cn1 + Cc1nc(Nc2ncc(C(=O)Nc3c(C)cccc3Cl)s2)cc(N2CCN(CCO)CC2)n1 [Dasatinib] (partner 0.075 µM)
In short: as §1

[3] = compound: Cn1cc(-c2cnn3c(N)c(Br)c([C@@H]4CCCNC4)nc23)cn1 + Nc1nc2[nH]cc(CCc3ccc(C(=O)N[C@@H](CCC(=O)O)C(=O)O)cc3)c2c(=O)[nH]1 [Pemetrexed] (partner 0.2 µM)
In short: as §1

[4] = compound: Cn1cc(-c2cnn3c(N)c(Br)c([C@@H]4CCCNC4)nc23)cn1 + CC(=O)c1c(C)c2cnc(Nc3ccc(N4CCNCC4)cn3)nc2n(C2CCCC2)c1=O [Palbociclib] (partner 0.5 µM)
In short: as §1

Cell Line	relative viability ([1]; first compound 0.05 µM)	relative viability ([1]; first compound 0.1581 µM)	relative viability ([1]; first compound 0.5 µM)	relative viability ([1]; first compound 1.581 µM)	relative viability ([1]; first compound 5 µM)	relative viability ([2]; first compound 0.05 µM)	relative viability ([2]; first compound 0.1581 µM)	relative viability ([2]; first compound 0.5 µM)	relative viability ([2]; first compound 1.581 µM)	relative viability ([2]; first compound 5 µM)	relative viability ([3]; first compound 0.05 µM)	relative viability ([3]; first compound 0.1581 µM)	relative viability ([3]; first compound 0.5 µM)	relative viability ([3]; first compound 1.581 µM)	relative viability ([3]; first compound 5 µM)	relative viability ([4]; first compound 0.05 µM)	relative viability ([4]; first compound 0.1581 µM)	relative viability ([4]; first compound 0.5 µM)	relative viability ([4]; first compound 1.581 µM)	relative viability ([4]; first compound 5 µM)
201T	0.938	1.05	0.996	0.897	0.549	0.614	0.568	0.651	0.587	0.439	0.362	0.327	0.315	0.264	0.294	0.362	0.373	0.34	0.322	0.363
A-427	0.817	0.915	0.843	0.816	0.406	0.863	0.816	0.633	0.583	0.358	0.938	0.99	1.03	0.837	0.46	0.51	0.503	0.508	0.504	0.411
ABC-1		0.955	1.04	1.02	0.356	0.479	0.561	0.497	0.484	0.301							1.06	0.872	0.452	0.718
BEN	0.659	0.531	0.558	0.644	0.508	0.316	0.286	0.347	0.327	0.265	0.763	0.825	0.719	0.708	0.616	0.501	0.489	0.497	0.459	0.53
CAL-12T	0.848	0.775	0.664	0.56	0.228	0.467	0.427	0.26	0.299	0.174	1.45	0.778	0.892	0.623	0.393	0.505	0.569	0.476	0.189	0.202
COR-L23	0.387	0.273	0.24	0.187	0.117	0.495	0.451	0.441	0.343	0.2	0.196	0.178	0.178	0.186	0.139	0.345	0.346	0.356	0.231	0.183
COR-L 105	0.921	0.723	0.756	0.526	0.616	0.318	0.336	0.341	0.29	0.309	0.939	0.921	1.08	0.92	0.82	0.411	0.367	0.385	0.41	0.386
ChaGo-K-1	0.736	0.785	0.779	0.687	0.753	0.565	0.564	0.606	0.478	0.353	0.259	0.248	0.273	0.28	0.247	0.956	0.98	0.911	0.869	0.97
EKVX	0.736	0.723	0.712	0.638	0.691	0.376	0.549	0.54	0.496	0.578	0.497	0.293	0.307	0.241	0.206	0.368	0.376	0.383	0.413	0.355
EMC-BAC-2	0.275	0.351	0.35	0.46	0.23	0.315	0.328	0.333	0.342	0.25	0.478	0.386	0.399	0.433	0.462	0.533	0.52	0.527	0.445	0.43
EPLC-272H	0.571	0.275	0.239	0.266	0.15	0.34	0.339	0.333	0.286	0.162	0.268	0.186	0.139	0.106	0.098	0.294	0.312	0.311	0.273	0.25
H3255	0.738	0.872	0.914	0.746	0.411	0.313	0.379	0.39	0.446	0.267	0.537	0.536	0.56	0.483	0.461	0.314	0.342	0.323	0.291	0.277
HARA	0.62	0.511	0.511	0.433	0.556	0.37	0.316	0.332	0.252	0.157	0.228	0.213	0.223	0.141	0.141	0.246	0.264	0.322	0.299	0.158
HCC-15	0.922	1	0.9	0.804	0.705	0.706	0.633	0.511	0.464	0.483	0.206	0.232	0.227	0.226	0.207	0.71	0.785	0.721	0.604	0.591
HCC-44	1.08	1.13	1.22	1.08	1.12						0.608	0.586	0.674	0.321	0.369	0.876	0.957	0.978	0.964	0.952
HCC-78	0.431	0.609	0.478	0.41	0.416		0.384	0.388	0.398	0.295	0.912	0.842	0.869	0.869	0.743	0.445	0.391	0.532	0.439	0.488
HCC-366	0.333	0.402	0.337	0.301	0.211	0.644	0.562	0.628	0.467	0.22	0.166	0.108	0.128	0.0814	0.0667	0.399	0.463	0.359	0.267	0.3
HCC-827	0.741	0.929	1.02	0.917	0.797	0.32	0.392	0.276	0.295	0.193	0.269	0.202	0.249	0.228	0.187	0.48	0.437	0.491	0.471	0.451

Cell Line	relative viability ([1]; first compound 0.05 µM)	relative viability ([1]; first compound 0.1581 µM)	relative viability ([1]; first compound 0.5 µM)	relative viability ([1]; first compound 1.581 µM)	relative viability ([1]; first compound 5 µM)	relative viability ([2]; first compound 0.05 µM)	relative viability ([2]; first compound 0.1581 µM)	relative viability ([2]; first compound 0.5 µM)	relative viability ([2]; first compound 1.581 µM)	relative viability ([2]; first compound 5 µM)	relative viability ([3]; first compound 0.05 µM)	relative viability ([3]; first compound 0.1581 µM)	relative viability ([3]; first compound 0.5 µM)	relative viability ([3]; first compound 1.581 µM)	relative viability ([3]; first compound 5 µM)	relative viability ([4]; first compound 0.05 µM)	relative viability ([4]; first compound 0.1581 µM)	relative viability ([4]; first compound 0.5 µM)	relative viability ([4]; first compound 1.581 µM)	relative viability ([4]; first compound 5 µM)
HOP-62	0.698	0.775	0.645	0.386	0.209	0.66	0.702	0.568	0.589	0.316	0.309	0.252	0.307	0.22	0.203	0.438	0.5	0.485	0.417	0.334
IA-LM	1.11	1.12	1.11	0.672	0.64															
LC-2-ad	0.683	0.808	0.662	0.76	0.735	0.486	0.544	0.504	0.327	0.458	0.293	0.295	0.265	0.25	0.239	0.499	0.515	0.441	0.435	0.483
LCLC-97TM1	0.67	0.95	0.936	0.582	0.433	0.838	0.96	0.833	0.82	0.853	0.172	0.185	0.189	0.171	0.126	0.248	0.236	0.242	0.242	0.178
LCLC-103H	0.738	0.879	0.824	0.615	0.597	0.511	0.449	0.412	0.425	0.289	0.539	0.463	0.482	0.428	0.298	0.521	0.447	0.467	0.515	0.466
LK-2	0.276	0.351	0.236	0.249	0.162	0.228	0.296	0.26		0.228	0.271	0.309	0.271	0.278	0.124	0.703	0.658	0.678	0.542	0.431
LOU-NH91	0.849	0.911	0.908	0.863	0.703	0.561	0.506	0.514	0.519	0.48	0.398	0.289	0.254	0.25	0.64	0.544	0.539	0.47	0.506	0.52
LU99A	0.46	0.469	0.452	0.36	0.216	0.397	0.51	0.485	0.405	0.244	0.19	0.144	0.139	0.124	0.129	0.421	0.458	0.386	0.392	0.339
LXF-289	0.731	0.795	0.745	0.746	0.757	0.216	0.209	0.181	0.221	0.209	0.985	0.953	0.823	0.779	0.645	0.618	0.663	0.585	0.555	0.654
NCI-H23	0.547	0.508	0.424	0.206	0.125	0.851	0.999	0.687	0.585	0.18	0.582	0.539	0.504	0.275	0.19	0.568	0.496	0.552	0.34	0.25
NCI-H322M	0.871	0.831	0.754	0.626	0.394	0.268	0.279	0.268	0.231	0.245	0.602	0.548	0.561	0.49	0.363	0.424	0.458	0.452	0.463	0.393
NCI-H358	0.748	0.732	0.422	0.455	0.302	0.131	0.155	0.156	0.167	0.148	0.177	0.164	0.162	0.166	0.129	0.151	0.134	0.128	0.104	0.111
NCI-H441	0.759	0.896	0.721	0.429	0.326	0.589	0.736	0.476	0.487	0.601	0.261	0.283	0.254	0.277	0.25	0.191	0.189	0.199	0.172	0.193
NCI-H596	0.517	0.602	0.624	0.356	0.455	0.668	0.549	0.552	0.545	0.589	0.481	0.462	0.534	0.371	0.326					
NCI-H727	1.04	1.17	1.33	1.15	1.13	0.29	0.292	0.333	0.403	0.287						0.646	0.686	0.589	0.581	0.642
NCI-H1563						0.418	0.451	0.503	0.436	0.412	0.754	0.647	0.782	0.753	0.532					
NCI-H1648	0.449	0.296	0.313	0.327	0.463						0.686	0.673	0.68	0.715	0.668	0.208	0.281	0.254	0.305	0.259
NCI-H1792							0.852	0.624	0.933	0.425	0.847	1.19	0.795		0.55		0.777	0.663	0.668	0.617
